Counter-ions that a name gives are not always drawn. Some results are limits rather than exact numbers.

In the first assay the test system is DBA/2 mice. In words: Audiogenic seizure model. The class given is in vivo. As to conditions: Mus musculus; DBA/2 mice, oral, dose 5 mg/kg, auditory stimulation 1 hour after administration; read-out: Seizure suppression. As to the method: The animal model used in this test is a phenotype model for partial seizure (including secondary generalized seizure) and generalized tonic-clonic seizure, and has high clinical predictability. This test was performed in accordance with the report of De Sarro et al (Br J Pharmacol. 1988 February; 93 (2): 247-56. Anticonvulsant effects of some calcium entry blockers in DBA/2 mice. De Sarro G B, Meldrum B S, Nistico G.).
In this test example, the example compounds shown in Tables 3-1 to 3-3 below were used as test compounds.
The test compounds were suspended in 5% gum arabic/distilled water (w/v), and administered by forced oral administration to male and female DBA/2 mice (Japan SLC, Inc., 3 weeks old, 8 per group) at a dose of 30 mg/kg. After one hour of the oral administration of the test compound, each mouse was placed in a transparent acrylic cylinder 30 cm high and 23 cm in diameter, and 30 seconds were allowed for habituation. Then, they were exposed to auditory stimulation (12.6 kHz, 100-110 dB) for 1 minute or until a tonic seizure occurred.
The seizure response was assessed using the following scale, 0: no seizure, 1: wild running, 2: clonic seizure, 3: tonic seizure and 4: respiratory arrest. The maximum response was recorded as the seizure severity score.
The seizure suppression rate for each compound administration group was calculated according to the following formula.
Here, a rate of seizure suppression of 90% or more was expressed as “A”, a rate of seizure suppression of 70% or more and less than 90% was expressed as “B”, and a rate of seizure suppression of 50% or more and less than 70% was expressed as “C”.
Turning to `Fc1cccc(F)c1Oc1ncc(-c2ccc3nccn3c2)cn1` [Example 167], the inhibition in vivo at 5 mg/kg was above 90%. For `Fc1cccc(Oc2ncc(-c3ccc4nccn4c3)cn2)c1F` [Example 164], the inhibition in vivo at 5 mg/kg was above 90%.

As to `Fc1ccc(F)c(Oc2ncc(-c3ccc4nccn4c3)cn2)c1` [Example 166], the inhibition in vivo at 5 mg/kg was above 90%.

The same assay, now with this note: Mus musculus; DBA/2 mice, oral, dose 30 mg/kg, auditory stimulation 1 hour after administration; read-out: Seizure suppression.
Turning to `FC(F)(F)c1cccc(-c2cnc(Oc3ccccc3)nc2)n1` [Example 301], the inhibition in vivo at 30 mg/kg was above 90%. For `Cc1ncccc1-c1cnc(Oc2cccc(F)c2)nc1` [Example 47], the inhibition in vivo at 30 mg/kg is above 90%. Regarding `Nc1ccc(-c2cnc(Oc3c(F)cccc3F)nc2)nn1` [Example 39], the inhibition in vivo at 30 mg/kg is above 90%. As to `O=C1CCN(c2ccc(Cc3cccc(OC(F)(F)F)c3)cc2)C(=O)N1` [Example 339], the inhibition in vivo at 30 mg/kg was 70 to 90%. Turning to `O=C1Cc2cc(-c3cnc(Oc4ccc(F)cc4)nc3)ccc2N1` [Example 266], the inhibition in vivo at 30 mg/kg is above 90%. Same read-out and setting: the same measure for `Fc1ccccc1Oc1ncc(-c2ccn3nccc3c2)cn1` [Example 195]: above 90%. With `Fc1cccc(Oc2ncc(-c3ccc4ncnn4c3)cn2)c1` [Example 145], the inhibition in vivo at 30 mg/kg is above 90%. As for `O=C1COCCN1c1cnc(Oc2ccc(F)cc2)nc1` [Example 231], the inhibition in vivo at 30 mg/kg is above 90%. As for `c1ccc(Oc2ncc(-c3ccc4nccnc4c3)cn2)cc1` [Example 253], the inhibition in vivo at 30 mg/kg is above 90%.

As to `Fc1ccccc1Oc1ncc(-c2ccc3cnnn3c2)cn1` [Example 174], the inhibition in vivo at 30 mg/kg is above 90%. On to `Fc1ccc(Oc2ncc(-c3ccc4nnc(C(F)(F)F)n4c3)cn2)cc1` [Example 282], for which the inhibition in vivo at 30 mg/kg is above 90%. `Fc1ccc(Oc2ncc(-c3ccc4cncn4c3)cn2)cc1` [Example 158]: the inhibition in vivo at 30 mg/kg is above 90%.

On to `OCc1ccc(-c2cnc(Oc3ccccc3)nc2)nn1` [Example 72, (6-(2-Phenoxypyrimidin-5-Yl)Pyridazin-3-Yl) Methanol], for which the inhibition in vivo at 30 mg/kg was above 90%. Take `O=c1[nH]nccc1-c1cnc(Oc2ccccc2F)nc1` [Example 117]: the inhibition in vivo at 30 mg/kg was above 90%. Consider `Cc1ncccc1-c1cnc(Oc2cccc(C(F)(F)F)c2)nc1` [Example 76], for which the inhibition in vivo at 30 mg/kg is above 90%. For the compound `Nc1cc(-c2cnc(Oc3cccc(C(F)(F)F)c3)nc2)ccn1` [Example 81], the inhibition in vivo at 30 mg/kg was above 90%. On to `O=C1CCN(c2cc(F)c(Oc3ccccc3)c(F)c2)C(=O)N1` [Example 330], for which the inhibition in vivo at 30 mg/kg is 50 to 70%. Turning to `Cc1cccc(Oc2ncc(-c3cccnc3)cn2)c1` [Example 35], the inhibition in vivo at 30 mg/kg is above 90%. Turning to `c1ccc(Oc2ncc(-c3ccnc4[nH]ccc34)cn2)cc1` [Example 138], the inhibition in vivo at 30 mg/kg was above 90%. On to `Cc1ccc(-c2cnc(Oc3ccccc3F)nc2)nn1` [Example 25], for which the inhibition in vivo at 30 mg/kg was above 90%.

As for `Fc1ccc(Oc2ncc(-c3ccc4ncnn4c3)cn2)cc1` [Example 146], the inhibition in vivo at 30 mg/kg was above 90%.

As for `O=C1CCN(c2ccc(Oc3ccc(F)cc3)cc2)C(=O)N1` [Example 310], the inhibition in vivo at 30 mg/kg lay in the range of 50 to 70%. Turning to `Cn1ccc2ccc(-c3cnc(Oc4ccccc4)nc3)nc21` [Example 215], the inhibition in vivo at 30 mg/kg was above 90%. On the same count and under the same terms, the same measure for `Fc1ccccc1Oc1ncc(-c2ccc3nncn3n2)cn1` [Example 290]: above 90%; for `Cc1cnc2ccc(-c3cnc(Oc4ccccc4F)nc3)cn12` [Example 191]: above 90%. Same read-out and setting: for `c1ccc(Oc2ncc(-c3ccc4[nH]cnc4c3)cn2)cc1` [Example 257, 5-(2-Phenoxypyrimidin-5-Yl)-1H-Benzo[d]Imidazole Oxalate] the value was above 90%; for `Cc1nc2cc(-c3cnc(Oc4ccccc4F)nc3)ccn2c1C` [Example 205], above 90%.

For `Cc1ncccc1-c1cnc(Oc2c(F)cccc2F)nc1` [Example 54], the inhibition in vivo at 30 mg/kg was above 90%.

For the origin of these results see patent US12391674B2, “Heterocyclic compounds for the treatment of epilepsy” (OTSUKA PHARMACEUTICAL CO., LTD., priority 2018, dated 2025).
